Laboratory results as given in PMC8772768, “Phytochemical Analysis and Dermo-Cosmetic Evaluation of Cymbidium sp. (Orchidaceae) Cultivation By-Products” (Antioxidants, 2021).
Values after ≈ are worked out from the molar mass of the structure shown. “Also recorded” adds a separate entry of the source.

Columns and labels:
[1] = tested on: collagenase; experiment: Collagenase inhibition assay (fluorescent MMP-2 substrate); format: biochemical; details: for Collagenase inhibitory activity (in words): pure compounds at 25, 100, 250 μM; for Collagenase inhibition: mean ± SD, n = 3
Procedure: Collagenase inhibitory activity was determined by a previously described enzymatic method with slight modifications, based on the fluorescence of the MMP-2 substrate after its degradation by collagenase. In a 96-well black microplate, 50 μL of Tris-HCL buffer (10 mM, pH = 7.3), 25 μL of the tested sample (dissolved in Tris-HCL buffer), and 25 μL of collagenase solution (30 μg/mL dissolved in Tris-HCL buffer) were preincubated for 10 min at 37 °C, avoiding light exposure. Afterwards, 25 μL of MMP-2 substrate (50 μM dissolved in Tris-HCL buffer) were added, and the plate was incubated for an additional 30 min at 37 °C in the dark. The fluorescent intensity was measured at an excitation maximum of 320 nm and an emission maximum of 405 nm using a Tecan (Infinite 200 Pro series, Männedorf, Switzerland). Crude extracts were evaluated at 75 μg/mL, 150 μg/mL, and 300 μg/mL and pure compounds at 25 μΜ, 100 μΜ, and 250 μΜ, respectively, dissolved in PBS buffer, while the percentage of DMSO was under 5% of the total volume inside the plate. […] Experiments were performed in triplicate. The collagenase inhibitory activity was calculated by the following equation:Inhibition (%) = (Abs A − Abs B)/(Abs A) × 100 where Abs A = Abs Control − Abs Control Blank and Abs B = Abs Sample − Abs Sample Blank. Abs Control is the absorbance of Tris-HCL buffer with 5% DMSO, collagenase enzyme, and substrate, and Abs Sample is the absorbance of the tested sample in the Tris-HCL buffer, collagenase enzyme, and substrate. Blanks consist of all the above reagents except the enzyme.

[2] = tested on: mushroom tyrosinase; design: method as in PMID 18503477; details: cited from earlier work
[3] = target: T1, elastase (Sus scrofa, UniProt P00772); experiment: Elastase inhibition assay (N-succinyl-Ala-Ala-Ala-p-nitroanilide); format: biochemical; details: for Elastase inhibitory activity (in words): pure compounds at 25, 100, 250 μM
T1 construct: purchased Sigma-Aldrich
T1 sequence (P00772 27-266): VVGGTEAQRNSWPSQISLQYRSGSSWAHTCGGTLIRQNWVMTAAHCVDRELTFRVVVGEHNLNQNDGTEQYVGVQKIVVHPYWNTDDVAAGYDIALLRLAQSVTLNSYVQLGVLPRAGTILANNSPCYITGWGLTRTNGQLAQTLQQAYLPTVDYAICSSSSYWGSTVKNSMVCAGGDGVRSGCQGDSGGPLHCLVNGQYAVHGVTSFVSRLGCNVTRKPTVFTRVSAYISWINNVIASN
Procedure: Elastase inhibitory activity was measured by the presence of p-nitroaniline, after the reaction of the elastase enzyme with the substrate N-succinyl-Ala-Ala-Ala-p-nitroanilide, using a previously described protocol with minor modifications. At first, 70 μL of Trizma-base buffer (50 mM, pH = 7.5), 10 μL of the tested sample, and 5 μL of elastase solution (0.4725 U/mL dissolved in Trizma-base buffer) were mixed in the 96-well microplate and were incubated for 10 min at 37 °C, avoiding light exposure. Following this procedure, 15 μL of the substrate (2 mM dissolved in Trizma-base buffer) were added to every well of the plate, and then the plate was incubated for 30 min at 37 °C. The presence of p-nitroaniline was measured spectrophotometrically at 405 nm using a Tecan (Infinite 200 Pro series, Männedorf, Switzerland). The final tested concentrations of the extracts and pure compounds were 50 μg/mL, 100 μg/mL, 300 μg/mL, and 25 μΜ, 100 μΜ, 250 μΜ, respectively, dissolved in Trizma-base buffer, and the percentage of DMSO was under 5% of the total volume inside the plate. The negative control of the assay was 5% DMSO Trizma-base buffer, and the positive was Elastatinal (IC100 = 5 μg/mL and IC50 = 0.5 μg/mL), a strong irreversible competitive elastase inhibitor. Experiments were performed in triplicate.
The elastase inhibitory activity was calculated by the following equation:Inhibition (%) = (Abs A − Abs B)/(Abs A) × 100 where Abs A = Abs Control − Abs Control Blank and Abs B = Abs Sample − Abs Sample Blank. Abs Control is the absorbance of Trizma-base Buffer with 5% DMSO, elastase enzyme, and substrate, and Abs Sample is the absorbance of the tested sample in the Trizma-base buffer, elastase enzyme, and substrate. Blanks consist of all the above reagents except the enzyme.

[4] = target: tyrosinase (Agaricus bisporus, UniProt C7FF04); experiment: Tyrosinase inhibition assay (L-DOPA, dopachrome at 475 nm); format: biochemical; details: pure compounds at 25, 100, 250 μM
Chain of tyrosinase (C7FF04 1-392): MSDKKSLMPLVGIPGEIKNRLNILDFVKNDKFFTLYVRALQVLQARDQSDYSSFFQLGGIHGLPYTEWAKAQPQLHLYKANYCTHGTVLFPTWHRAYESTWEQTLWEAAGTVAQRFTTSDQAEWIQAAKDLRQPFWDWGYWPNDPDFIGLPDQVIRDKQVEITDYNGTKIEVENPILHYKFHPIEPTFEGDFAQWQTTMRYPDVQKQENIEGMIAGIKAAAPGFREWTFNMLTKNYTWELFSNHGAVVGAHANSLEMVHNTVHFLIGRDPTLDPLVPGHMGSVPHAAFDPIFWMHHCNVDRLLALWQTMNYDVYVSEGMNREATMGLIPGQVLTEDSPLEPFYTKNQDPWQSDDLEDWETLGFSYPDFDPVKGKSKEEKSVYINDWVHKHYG

[5] = tested on: human cell lung cancer (NCI-H187) cell line; design: method as in PMID 30450973; details: cited from earlier work
[6] = DPPH radical scavenging assay; format: biochemical; details: dissolved in DMSO
Procedure: The final tested concentrations of the extracts were 5 μg/mL, 10 μg/mL, 20 μg/mL, 50 μg/mL, 100 μg/mL, 250 μg/mL, and 500 μg/mL dissolved in DMSO. […] Experiments were performed in triplicate. The antioxidant activity was calculated by the following equation:Inhibition (%) = (Abs A − Abs B)/(Abs A) × 100 where Abs A = Abs Control − Abs Control Blank and Abs B = Abs Sample − Abs Sample Blank. Abs Control is the absorbance of the negative control, and Abs Sample is the absorbance of the tested sample. Blanks consist of all the above reagents except the free radical reagent.

COC1=CC(=O)C2=C(CCc3cccc(O)c32)C1=O [Compound 6, ephemeranthroquinone B]
Collagenase inhibitory activity (in words) [1]: dose-dependent anti-collagenase activity

COc1cc2c(c(OC)c1O)-c1c(O)cccc1CC2 [Compound 4, marylaurencinol A]
Collagenase inhibitory activity (in words) [1]: dose-dependent anti-collagenase activity

Oc1ccc(/C=C/c2cc(O)cc(O)c2)cc1 [resveratrol]
inhibitory effects on mushroom tyrosinase [2]: potent inhibitory effects

CC(C)C[C@H](NC(=O)N[C@H](C(=O)N[C@@H](CCC(N)=O)C(=O)N[C@@H](C)C=O)[C@@H]1CCNC(=N)N1)C(=O)O [Elastatinal, reference compound]
IC50 ([3]; positive control): 0.975 µM | IC100 (elastase, positive control) ([3]; positive control): 5 µg/mL

COc1cc(CCc2cc(O)cc(O)c2)ccc1O [Compound 9, tristin]
Tyrosinase inhibitory activity (in words) [4]: important anti-tyrosinase activity; also recorded: moderate, dose-dependent, inhibition activity | Elastase inhibitory activity (in words) [3]: non-active | Collagenase inhibitory activity (in words) [1]: non-active

COC1=CC(=O)c2c(ccc3cccc(O)c23)C1=O [Compound 5, 5-hydroxy-2-methoxy-1,4-phenanthrenequinone]
Collagenase inhibitory activity (in words) [1]: dose-dependent anti-collagenase activity | cytotoxic activity [5]: cytotoxic activity

Cc1cc(O)cc(O)c1 [Compound 14, orcinol]
Elastase inhibitory activity (in words) [3]: inactive | Collagenase inhibitory activity (in words) [1]: inactive

COc1cc(O)cc(CCc2ccc(O)c(OC)c2)c1 [Compound 8, gigantol]
Tyrosinase inhibitory activity (in words) [4]: important anti-tyrosinase activity; also recorded: moderate, dose-dependent, inhibition activity | Elastase inhibitory activity (in words) [3]: non-active | Collagenase inhibitory activity (in words) [1]: non-active

COc1cc2ccc3cccc(O)c3c2c(OC)c1O [Compound 1, bulbophyllanthrin]
Collagenase inhibitory activity (in words) [1]: dose-dependent anti-collagenase activity

O=C(O)c1cc(O)c(O)c(O)c1 [Gallic Acid]
IC50 (DPPH, positive control) [6]: 100 mg/L (≈ 588 µM)

CC(C)C[C@H](NP(=O)(O)O[C@@H]1O[C@@H](C)[C@H](O)[C@@H](O)[C@H]1O)C(=O)N[C@@H](Cc1c[nH]c2ccccc12)C(=O)O [Phosphoramidon, reference compound]
IC50 ([1]; positive control): 6.9 µM

COc1ccc2c(ccc3cc(OC)c(O)c(OC)c32)c1 [Compound 2, 3-hydroxy-2,4,7-trimethoxy-phenanthrene]
Collagenase inhibition ([1]; pure compound at 25 μM): 12.62 ± 1.48% | Collagenase inhibition ([1]; pure compound at 100 μM): 50.05 ± 2.67% | Collagenase inhibition ([1]; pure compound at 250 μM): 72.73 ± 1.38% | Collagenase inhibitory activity (in words) [1]: dose-dependent anti-collagenase activity
